Reference: patent publication US11026957B2, “Method to treat lipid dysregulation by modulation of proprotein convertase subtilisin/kexin type 9 (PCSK9) protein activity with small molecule ligands” (SRX CARDIO, LLC, priority 2014, dated 2021)

Target: recombinant human PCSK9 (Homo sapiens, UniProt Q8NBP7)
Test: Direct binding measurement by backscatter interferometry
Settings: 6-point binding curve, ±8 nM, r^2 of 0.86
Experimental: Direct binding was measured using backscatter interferometry, which has been previously described in “Interferometric detection system and method” (EP 1210581), “Free solution measurement of molecular interactions by backscattering interferometry” (WO 2009039466), “Temperature-stable interferometer” (WO 2009076372), and “Improved event detection for back-scattering interferometry” (WO 2013158300); which are incorporated herein in their entirety by reference.

recombinant human PCSK9, sequence (Q8NBP7 153-692): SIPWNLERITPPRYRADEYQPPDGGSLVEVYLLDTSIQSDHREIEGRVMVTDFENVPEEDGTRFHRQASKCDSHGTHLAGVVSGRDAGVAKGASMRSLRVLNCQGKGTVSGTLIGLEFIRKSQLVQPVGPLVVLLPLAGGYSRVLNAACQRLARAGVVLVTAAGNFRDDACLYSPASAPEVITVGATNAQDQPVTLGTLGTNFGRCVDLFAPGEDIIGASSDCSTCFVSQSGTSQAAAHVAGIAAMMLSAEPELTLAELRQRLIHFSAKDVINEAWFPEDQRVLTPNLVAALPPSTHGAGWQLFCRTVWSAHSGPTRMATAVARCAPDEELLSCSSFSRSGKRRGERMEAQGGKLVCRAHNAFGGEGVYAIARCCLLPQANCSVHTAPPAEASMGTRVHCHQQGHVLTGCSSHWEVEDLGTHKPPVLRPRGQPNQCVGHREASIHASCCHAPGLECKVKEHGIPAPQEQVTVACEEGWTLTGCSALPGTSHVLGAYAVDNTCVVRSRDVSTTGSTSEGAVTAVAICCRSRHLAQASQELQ

`C/C(=N\Nc1nnn[nH]1)C(=O)N1CCC(c2ccccc2)CC1` [SRX200, (E)-2-(2-(1H-tetrazol-5-yl)hydrazono)-1-(4-phenylpiperidin-1-yl)propan-1-one] was tested, and the Kd was 24 nM.
